The target of the test is USP1 (construct USP1 (I-785, GG670, 671AA)/UAF1 (I-677)-Flag) (Homo sapiens (Human), UniProt O94782, G670A/G671A). Put plainly: Ubiquitin-Rhodamine 110 assay for USP1 activity. It counts as biochemical. Particulars: USP1/UAF1 25 pM, Ub-Rh110 25 nM, 30 min preincubation. The essentials:
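Two formats with the USP1/UAF1 complex and 25 nM ubiquitin-rhodamine 110 in pH 8.0 Tris buffer with calcium, glutathione and detergent. Single-point screening used 10 µM, 100 pM enzyme and 45 min. Inhibition was set against no-enzyme and DMSO wells.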
Sequence of USP1 (construct USP1 (I-785, GG670, 671AA)/UAF1 (I-677)-Flag) (O94782 whole entry G670A/G671A): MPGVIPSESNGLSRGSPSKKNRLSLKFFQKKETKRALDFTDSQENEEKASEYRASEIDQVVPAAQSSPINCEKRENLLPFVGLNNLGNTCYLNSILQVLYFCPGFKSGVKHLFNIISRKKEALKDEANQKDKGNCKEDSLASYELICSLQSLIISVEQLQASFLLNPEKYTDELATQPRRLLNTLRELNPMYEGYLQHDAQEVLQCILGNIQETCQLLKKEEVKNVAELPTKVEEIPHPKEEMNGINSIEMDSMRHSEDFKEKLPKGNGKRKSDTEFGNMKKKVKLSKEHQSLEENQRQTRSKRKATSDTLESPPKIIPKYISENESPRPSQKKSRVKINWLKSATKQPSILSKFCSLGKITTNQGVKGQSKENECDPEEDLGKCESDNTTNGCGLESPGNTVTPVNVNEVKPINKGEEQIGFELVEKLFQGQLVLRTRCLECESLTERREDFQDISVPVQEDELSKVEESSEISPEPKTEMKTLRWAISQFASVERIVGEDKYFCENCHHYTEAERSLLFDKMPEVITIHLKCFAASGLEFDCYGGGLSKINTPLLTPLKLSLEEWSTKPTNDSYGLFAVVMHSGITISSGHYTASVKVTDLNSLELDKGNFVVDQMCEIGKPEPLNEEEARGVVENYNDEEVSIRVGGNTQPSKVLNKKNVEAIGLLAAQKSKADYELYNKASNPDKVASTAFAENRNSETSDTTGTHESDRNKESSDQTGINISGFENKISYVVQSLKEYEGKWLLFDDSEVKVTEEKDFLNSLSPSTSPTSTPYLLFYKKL
Sequence of USP1 (construct USP1 (I-785, GG670, 671AA)/UAF1 (I-677)-Flag) (Q8TAF3 whole entry partner): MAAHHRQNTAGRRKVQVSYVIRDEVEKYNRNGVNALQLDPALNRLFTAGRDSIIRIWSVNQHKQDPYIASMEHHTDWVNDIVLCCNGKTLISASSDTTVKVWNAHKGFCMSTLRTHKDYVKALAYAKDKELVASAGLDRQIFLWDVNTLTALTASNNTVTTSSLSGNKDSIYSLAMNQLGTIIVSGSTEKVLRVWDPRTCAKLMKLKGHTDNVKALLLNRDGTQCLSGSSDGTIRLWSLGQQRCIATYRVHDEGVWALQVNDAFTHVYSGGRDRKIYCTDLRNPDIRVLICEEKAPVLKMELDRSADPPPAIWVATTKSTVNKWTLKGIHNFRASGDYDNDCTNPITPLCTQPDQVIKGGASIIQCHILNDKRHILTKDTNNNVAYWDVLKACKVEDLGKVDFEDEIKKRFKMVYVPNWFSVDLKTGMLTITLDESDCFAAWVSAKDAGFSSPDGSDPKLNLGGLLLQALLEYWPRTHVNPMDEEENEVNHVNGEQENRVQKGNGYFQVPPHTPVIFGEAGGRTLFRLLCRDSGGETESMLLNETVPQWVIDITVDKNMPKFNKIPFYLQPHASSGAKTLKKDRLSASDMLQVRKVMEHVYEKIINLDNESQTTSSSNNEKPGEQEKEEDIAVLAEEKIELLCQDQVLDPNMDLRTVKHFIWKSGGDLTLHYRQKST
By IC50 is commonly meant the concentration that gives 50% inhibition. Consider `Cc1nc(-c2ccc(Cn3c(=O)n(C)c4cnc(-c5ccccc5C(C)C)nc43)cc2)cn1C` [Compound I-276, 9-(4-(1,2-dimethyl-1H-imidazol-4-yl)benzyl)-2-(2-isopropylphenyl)-7-methyl-7,9-dihydro-8H-purin-8-one], for which the IC50 was < 50 nM.

Turning to `Cc1cc(C(F)(F)F)nn1-c1ccc(Cn2c(=O)[nH]c3cnc(-c4cccnc4C(C)C)nc32)cc1` [Compound I-40, 2-(2-isopropylpyridin-3-yl)-9-(4-(5-methyl-3-(trifluoromethyl)-1H-pyrazol-1-yl)benzyl)-7,9-dihydro-8H-purin-8-one], the 50% inhibitory concentration (IC50) is < 50 nM.

As to `Cn1cc(C(F)(F)F)nc1-c1ccc(Cn2c(=O)[nH]c3cnc(-c4cccnc4N4CCCC4)nc32)cc1` [Compound I-325, 9-(4-(1-methyl-4-(trifluoromethyl)-1H-imidazol-2-yl)benzyl)-2-(2-(pyrrolidin-1-yl)pyridin-3-yl)-7,9-dihydro-8H-purin-8-one], the IC50 was < 50 nM.

Turning to `COCC1(N(C)C(=O)c2ccc(Cn3c(=O)[nH]c4cnc(-c5ccccc5C(C)C)nc43)cc2)CC1` [Compound I-391, 4-((2-(2-isopropylphenyl)-8-oxo-7,8-dihydro-9H-purin-9-yl)methyl)-N-(1-(methoxymethyl)cyclopropyl)-N-methylbenzamide], the IC50 was < 50 nM.

With `CC(C)c1ccccc1-c1ncc2[nH]c(=O)n(Cc3ccc(C(=O)NCCN4CCCCC4)cc3)c2n1` [Compound I-409, 4-((2-(2-isopropylphenyl)-8-oxo-7,8-dihydro-9H-purin-9-yl)methyl)-N-(2-(piperidin-1-yl)ethyl)benzamide], the half-inhibitory concentration (IC50) is > 2000 nM.

Turning to `CC(C)c1ccccc1-c1ncc2c(n1)n(Cc1ccc(-c3nccn3C(C)C)cc1)c(=O)n2C` [Compound I-497, 9-(4-(1-isopropyl-1H-imidazol-2-yl)benzyl)-2-(2-isopropylphenyl)-7-methyl-7,9-dihydro-8H-purin-8-one], the concentration for half-maximal inhibition (IC50) is < 50 nM.

On to `Cc1cc(Cl)nn1-c1ccc(Cn2c(=O)[nH]c3cnc(-c4ccccc4C(C)C)nc32)cc1` [Compound I-210, 9-(4-(3-chloro-5-methyl-1H-pyrazol-1-yl)benzyl)-2-(2-isopropylphenyl)-7,9-dihydro-8H-purin-8-one], for which the IC50 was < 50 nM.

`CC(C)c1ccccc1-c1ncc2c(n1)n(Cc1ccc(-c3cccc4nccn34)cc1)c(=O)n2C` [Compound I-270, 9-(4-(imidazo[1,2-a]pyridin-5-yl)benzyl)-2-(2-isopropylphenyl)-7-methyl-7,9-dihydro-8H-purin-8-one] gave an IC50 of 200 to 2000 nM.

On to `CC(C)c1ccccc1-c1ncc2[nH]c(=O)n(Cc3ccc(C(=O)NC4(c5ccccc5)CCCC4)cc3)c2n1` [Compound I-359, 4-((2-(2-isopropylphenyl)-8-oxo-7,8-dihydro-9H-purin-9-yl)methyl)-N-(1-phenylcyclopentyl)benzamide], for which the 50% inhibitory concentration (IC50) was in the range of 50 to 200 nM.

Turning to `CC(C)c1ncccc1-c1ncc2c(n1)n(Cc1ccc(-c3nc(C(F)(F)F)cn3C)cc1)c(=O)n2C1COC1` [Compound I-119, 2-(2-isopropylpyridin-3-yl)-9-(4-(1-methyl-4-(trifluoromethyl)-1H-imidazol-2-yl)benzyl)-7-(oxetan-3-yl)-7,9-dihydro-8H-purin-8-one], the IC50 was in the range of 50 to 200 nM.

For the molecule `O=c1[nH]c2cnc(-c3ccccc3OCC(F)(F)F)nc2n1Cc1ccc(-n2cccn2)cc1` [Compound I-22, 9-(4-(1H-pyrazol-1-yl)benzyl)-2-(2-(2,2,2-trifluoroethoxy)phenyl)-7,9-dihydro-8H-purin-8-one], the half-maximal inhibitory concentration (IC50) fell in the range of 200 to 2000 nM.

With `Cc1cc(C)n(-c2ccc([C@H](C)n3c(=O)[nH]c4cnc(-c5ccccc5C(C)C)nc43)cc2)n1` [Compound I-191, (S)-9-(1-(4-(3,5-dimethyl-1H-pyrazol-1-yl)phenyl)ethyl)-2-(2-isopropylphenyl)-7,9-dihydro-8H-purin-8-one], the IC50 was < 50 nM.

The molecule `Cn1cc(C(F)(F)F)nc1-c1ccc(Cn2c(=O)n(C)c3cnc(-c4cccnc4C(F)F)nc32)cc1` [Compound I-72, 2-(2-(difluoromethyl)pyridin-3-yl)-7-methyl-9-(4-(1-methyl-4-(trifluoromethyl)-1H-imidazol-2-yl)benzyl)-7,9-dihydro-8H-purin-8-one] showed an IC50 of 200 to 2000 nM.

With `Cc1cn(C2COC2)c(-c2ccc(Cn3c(=O)[nH]c4cnc(-c5cccc(F)c5C(C)C)nc43)cc2)n1` [Compound I-202, 2-(3-fluoro-2-isopropylphenyl)-9-(4-(4-methyl-1-(oxetan-3-yl)-1H-imidazol-2-yl)benzyl)-7,9-dihydro-8H-purin-8-one], the IC50 is < 50 nM.

For `CC(C)c1ccccc1-c1ncc2c(n1)n(Cc1ccc(OC3CCOCC3)cc1)c(=O)n2C` [Compound I-238, 2-(2-isopropylphenyl)-7-methyl-9-(4-((tetrahydro-2H-pyran-4-yl)oxy)benzyl)-7,9-dihydro-8H-purin-8-one], the IC50 was 200 to 2000 nM.

`CCOc1ncccc1-c1ncc2[nH]c(=O)n(Cc3ccc(-n4cccn4)cc3)c2n1` [Compound I-19, 9-(4-(1H-pyrazol-1-yl)benzyl)-2-(2-ethoxypyridin-3-yl)-7,9-dihydro-8H-purin-8-one] gave a 50% inhibitory concentration (IC50) of 200 to 2000 nM.

`Cn1ccc2cccc(-c3ncc4[nH]c(=O)n(Cc5ccc(-n6cccn6)cc5)c4n3)c21` [Compound I-29, 9-(4-(1H-pyrazol-1-yl)benzyl)-2-(1-methyl-1H-indol-7-yl)-7,9-dihydro-8H-purin-8-one] displayed a 50% inhibitory concentration (IC50) of 200 to 2000 nM.

With `Cc1cc(C#N)n(-c2ccc(Cn3c(=O)[nH]c4cnc(-c5ccccc5C(C)C)nc43)cc2)n1` [Compound I-208, 1-(4-((2-(2-isopropylphenyl)-8-oxo-7,8-dihydro-9H-purin-9-yl)methyl)phenyl)-3-methyl-1H-pyrazole-5-carbonitrile], the IC50 was < 50 nM.

On to `Cn1cc(C(F)(F)F)nc1-c1ccc(Cn2c(=O)n(C)c3cnc(-c4cccnc4C4CC4)nc32)cc1` [Compound I-71, 2-(2-cyclopropylpyridin-3-yl)-7-methyl-9-(4-(1-methyl-4-(trifluoromethyl)-1H-imidazol-2-yl)benzyl)-7,9-dihydro-8H-purin-8-one], for which the IC50 is < 50 nM.

Regarding `COC(=O)c1ccccc1-c1ncc2[nH]c(=O)n(Cc3ccc(-c4nc(C(F)(F)F)cn4C)cc3)c2n1` [Compound I-524, Methyl 2-(9-(4-(1-Methyl-4-(trifluoromethyl)-1H-imidazol-2-yl)benzyl)-8-oxo-8,9-dihydro-7H-purin-2-yl)benzoate], the IC50 was < 50 nM.

`CC(C)c1ncccc1-c1ncc2[nH]c(=O)n(Cc3ccc(-c4nc(C(F)F)cn4C)cc3)c2n1` [Compound I-87, 9-(4-(4-(difluoromethyl)-1-methyl-1H-imidazol-2-yl)benzyl)-2-(2-isopropylpyridin-3-yl)-7,9-dihydro-8H-purin-8-one] registered a concentration for half-maximal inhibition (IC50) of 50 to 200 nM.

Molecule `CC(C)c1c(Cl)cccc1-c1ncc2[nH]c(=O)n(Cc3ccc(-n4cccn4)cc3)c2n1` [Compound I-93, 9-(4-(1H-pyrazol-1-yl)benzyl)-2-(3-chloro-2-isopropylphenyl)-7,9-dihydro-8H-purin-8-one] yielded an IC50 of 50 to 200 nM.

`CC(C)c1ccccc1-c1ncc2[nH]c(=O)n([C@H](C)c3ccc(-n4ccnn4)cc3)c2n1` [Compound I-148, (R)-9-(1-(4-(1H-1,2,3-triazol-1-yl)phenyl)ethyl)-2-(2-isopropylphenyl)-7,9-dihydro-8H-purin-8-one] yielded an IC50 of 200 to 2000 nM.

(Values after patent US10189841B2, “Purinones as ubiquitin-specific protease 1 inhibitors” (Forma Therapeutics, Inc., priority 2015, dated 2019).)
